From PubChem BioAssay (NCI)
Values joined by “and” are separate entries in the source; they are usually repeats but may differ in a detail not shown here. Identical values can stand only once.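 1) Cells in 96-well plates. 2) Compound, 48 h, 5 concentrations. 3) Linear interpolation between surrounding doses. 4) Unreached endpoint = highest concentration. GI50 marks 50% less growth. TGI: concentration producing complete growth inhibition.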

What was measured:
Assay in all cases: growth of human tumour cells (NCI), 48 h
EKVX NSCLC = tested on: EKVX NSCLC
HCT-15 colon = tested on: HCT-15 colon
HOP-62 NSCLC = tested on: HOP-62 NSCLC
HT29 colon = tested on: HT29 colon
K-562 leukemia = tested on: K-562 leukemia
OVCAR-8 ovarian = tested on: OVCAR-8 ovarian
SF-268 CNS = tested on: SF-268 CNS
SK-OV-3 ovarian = tested on: SK-OV-3 ovarian
SNB-19 CNS = tested on: SNB-19 CNS
UO-31 renal = tested on: UO-31 renal

COc1ccc(C2=CC3CCC2C3)cc1 (stereo not given)
TGI (EKVX NSCLC): > 100 µM
TGI (HCT-15 colon): > 100 µM
TGI (HOP-62 NSCLC): > 100 µM
TGI (HT29 colon): > 100 µM
TGI (K-562 leukemia): > 100 µM
TGI (OVCAR-8 ovarian): > 100 µM
TGI (SF-268 CNS): > 100 µM
TGI (SK-OV-3 ovarian): > 100 µM
TGI (SNB-19 CNS): > 100 µM
TGI (UO-31 renal): > 100 µM

COc1cc(C2=C(c3ccccc3)COC2=O)cc(OC)c1OC
GI50 (EKVX NSCLC): > 31.8 µM
TGI (EKVX NSCLC): > 100 µM
GI50 (HCT-15 colon): 2.96 µM
TGI (HCT-15 colon): > 100 µM
GI50 (HOP-62 NSCLC): 2.07 µM
TGI (HOP-62 NSCLC): > 100 µM
GI50 (HT29 colon): 3.13 µM
TGI (HT29 colon): 97.5 µM
GI50 (K-562 leukemia): 0.289 µM
TGI (K-562 leukemia): > 100 µM
GI50 (OVCAR-8 ovarian): 5.04 µM
TGI (OVCAR-8 ovarian): > 51.4 µM
GI50 (SF-268 CNS): 2.39 µM
TGI (SF-268 CNS): > 76.5 µM
GI50 (SK-OV-3 ovarian): 4.56 µM
TGI (SK-OV-3 ovarian): > 100 µM
GI50 (SNB-19 CNS): 4.42 µM
TGI (SNB-19 CNS): > 100 µM
GI50 (UO-31 renal): 7.77 µM
TGI (UO-31 renal): > 49.9 µM

CC(=O)OC[C@]1(C)C=C2C(=O)[C@](C)(O)C3(CC3)C(C)=C2[C@H]1O
GI50 (EKVX NSCLC): 0.252 µM
TGI (EKVX NSCLC): 1.2 µM
GI50 (HCT-15 colon): 0.0306 µM
TGI (HCT-15 colon): 31.8 µM
GI50 (HOP-62 NSCLC): 0.239 µM
TGI (HOP-62 NSCLC): 1.23 µM
GI50 (HT29 colon): 0.0339 µM
TGI (HT29 colon): > 100 µM
GI50 (K-562 leukemia): 0.131 µM
TGI (K-562 leukemia): > 100 µM
GI50 (OVCAR-8 ovarian): 0.177 µM
TGI (OVCAR-8 ovarian): 4.51 µM
GI50 (SF-268 CNS): 0.0384 µM
TGI (SF-268 CNS): 0.499 µM
GI50 (SK-OV-3 ovarian): 0.194 µM
TGI (SK-OV-3 ovarian): 1.11 µM
GI50 (SNB-19 CNS): 0.193 µM
TGI (SNB-19 CNS): 1.28 µM
GI50 (UO-31 renal): 0.114 µM
TGI (UO-31 renal): 0.273 µM

OCc1c[nH]c2ccccc12
GI50 (EKVX NSCLC): 15.5 µM
TGI (EKVX NSCLC): 63.3 µM
GI50 (HCT-15 colon): 20.3 µM
TGI (HCT-15 colon): 55.3 µM
GI50 (HOP-62 NSCLC): 14.4 µM
TGI (HOP-62 NSCLC): 36.7 µM
GI50 (HT29 colon): 24 µM
TGI (HT29 colon): 54.6 µM
GI50 (K-562 leukemia): 33.8 µM
TGI (K-562 leukemia): > 100 µM
GI50 (OVCAR-8 ovarian): 29.8 µM
TGI (OVCAR-8 ovarian): > 100 µM
GI50 (SF-268 CNS): 33.4 µM
TGI (SF-268 CNS): > 100 µM
GI50 (SK-OV-3 ovarian): 26.3 µM
TGI (SK-OV-3 ovarian): 98.9 µM
GI50 (SNB-19 CNS): 33 µM
TGI (SNB-19 CNS): > 100 µM
GI50 (UO-31 renal): 6.29 µM
TGI (UO-31 renal): 50.9 µM

CC[CH2][Sn]([CH2]CC)([O]C(=O)c1cccnc1SC)[O][Sn]([CH2]CC)([CH2]CC)[O]C(=O)c1cccnc1SC
GI50 (EKVX NSCLC): 0.699 µM
TGI (EKVX NSCLC): 2.85 µM
GI50 (HCT-15 colon): 0.246 µM
TGI (HCT-15 colon): 0.998 µM
GI50 (HOP-62 NSCLC): 2.32 µM
TGI (HOP-62 NSCLC): 5.31 µM
GI50 (HT29 colon): 1.1 µM
TGI (HT29 colon): 3.33 µM
GI50 (K-562 leukemia): 0.0756 µM
TGI (K-562 leukemia): 4.32 µM
GI50 (OVCAR-8 ovarian): 0.599 µM
TGI (OVCAR-8 ovarian): 1.92 µM
GI50 (SF-268 CNS): 0.33 µM
TGI (SF-268 CNS): 0.969 µM
GI50 (SK-OV-3 ovarian): 1.53 µM
TGI (SK-OV-3 ovarian): 3.61 µM
GI50 (SNB-19 CNS): 0.83 µM
TGI (SNB-19 CNS): 2.22 µM
GI50 (UO-31 renal): 0.844 µM
TGI (UO-31 renal): 2.14 µM

O=C(c1ccccc1)c1nnc(C(=O)c2ccccc2)nn1
TGI (EKVX NSCLC): > 344 µM
TGI (HCT-15 colon): > 344 µM
TGI (HOP-62 NSCLC): > 344 µM
TGI (HT29 colon): > 344 µM
TGI (K-562 leukemia): > 344 µM
TGI (OVCAR-8 ovarian): > 344 µM
TGI (SF-268 CNS): > 344 µM
TGI (SK-OV-3 ovarian): > 344 µM
TGI (SNB-19 CNS): > 344 µM
TGI (UO-31 renal): > 344 µM

NC(CCC(=O)NC(CSSCCCCS(=O)O)C(=O)NCC(=O)O)C(=O)O (stereo not given)
TGI (EKVX NSCLC): > 100 µM
TGI (HCT-15 colon): > 100 µM
TGI (HOP-62 NSCLC): > 100 µM
TGI (HT29 colon): > 100 µM
TGI (K-562 leukemia): > 100 µM
TGI (OVCAR-8 ovarian): > 100 µM
TGI (SF-268 CNS): > 100 µM
TGI (SK-OV-3 ovarian): > 100 µM
TGI (SNB-19 CNS): > 100 µM
TGI (UO-31 renal): > 100 µM

O=c1/c(=C/c2ccco2)sc2nc3ccccc3n12
GI50 (EKVX NSCLC): > 10 µM
TGI (EKVX NSCLC): > 100 µM
TGI (HCT-15 colon): > 10 µM
TGI (HOP-62 NSCLC): > 100 µM
GI50 (HT29 colon): > 100 µM
TGI (HT29 colon): > 100 µM
GI50 (K-562 leukemia): > 100 µM
TGI (K-562 leukemia): > 100 µM
GI50 (OVCAR-8 ovarian): > 100 µM
TGI (OVCAR-8 ovarian): > 100 µM
TGI (SF-268 CNS): > 10 µM
TGI (SK-OV-3 ovarian): > 100 µM
GI50 (SNB-19 CNS): > 100 µM
TGI (SNB-19 CNS): > 100 µM
TGI (UO-31 renal): > 10 µM

N#Cc1ccc(O)c(C2=NCC(c3cccc(Oc4ccccc4)c3)O2)c1 (stereo not given)
GI50 (EKVX NSCLC): 0.507 µM
TGI (EKVX NSCLC): > 100 µM
GI50 (HCT-15 colon): 0.363 µM
TGI (HCT-15 colon): 36.1 µM
GI50 (HOP-62 NSCLC): 0.605 µM
TGI (HOP-62 NSCLC): 12.7 µM
GI50 (HT29 colon): 5.41 µM
TGI (HT29 colon): 41.6 µM
GI50 (K-562 leukemia): 0.394 µM
TGI (K-562 leukemia): > 100 µM
GI50 (OVCAR-8 ovarian): 0.578 µM
TGI (OVCAR-8 ovarian): > 100 µM
GI50 (SF-268 CNS): 1.3 µM
TGI (SF-268 CNS): > 100 µM
GI50 (SK-OV-3 ovarian): 1.58 µM
TGI (SK-OV-3 ovarian): 21.3 µM
GI50 (SNB-19 CNS): 1.39 µM
TGI (SNB-19 CNS): > 100 µM
GI50 (UO-31 renal): 0.449 µM
TGI (UO-31 renal): 2.75 µM

COc1cc2c(c(O)c1Br)C(=O)c1c(O)cc(C[C@H](C)O)cc1[C@H]2[C@H]1c2cc(C[C@H](C)O)cc(O)c2C(=O)c2c1cc(OC)c(Br)c2O
GI50 (EKVX NSCLC): 4.86 µM and 6.86 µM
TGI (EKVX NSCLC): 16.3 µM and 27.5 µM
GI50 (HCT-15 colon): 10.4 µM and 17.4 µM
TGI (HCT-15 colon): 67.5 µM and > 100 µM
GI50 (HOP-62 NSCLC): 6.76 µM and 19.1 µM
TGI (HOP-62 NSCLC): 63.1 µM and 96 µM
GI50 (HT29 colon): 2.39 µM and 4.83 µM
TGI (HT29 colon): 67.5 µM and > 100 µM
GI50 (K-562 leukemia): 2.74 µM and 6.22 µM
TGI (K-562 leukemia): 67.5 µM and > 100 µM
GI50 (OVCAR-8 ovarian): 3.23 µM and 7.56 µM
TGI (OVCAR-8 ovarian): 67.5 µM and > 100 µM
GI50 (SF-268 CNS): 12.3 µM and 31.2 µM
TGI (SF-268 CNS): 67.5 µM and > 100 µM
GI50 (SK-OV-3 ovarian): 11.6 µM and 24.3 µM
TGI (SK-OV-3 ovarian): 47.1 µM and 89.8 µM
GI50 (SNB-19 CNS): 5.07 µM and 10.4 µM
TGI (SNB-19 CNS): 67.5 µM and 80.1 µM
GI50 (UO-31 renal): 7.52 µM and 15.4 µM
TGI (UO-31 renal): 15.9 µM and 29.8 µM

CC(C)C(=O)NC(=S)Nc1ccc([N+](=O)[O-])cc1C#N
TGI (EKVX NSCLC): > 100 µM
TGI (HCT-15 colon): > 100 µM
TGI (HOP-62 NSCLC): > 100 µM
TGI (HT29 colon): > 100 µM
TGI (K-562 leukemia): > 100 µM
TGI (OVCAR-8 ovarian): > 100 µM
TGI (SF-268 CNS): > 100 µM
TGI (SK-OV-3 ovarian): > 100 µM
TGI (SNB-19 CNS): > 100 µM
TGI (UO-31 renal): > 100 µM

Cc1ccc(NC(=O)c2cccc(N(C)C)c2)cc1NC(=O)c1ccc(O)cc1
GI50 (EKVX NSCLC): > 79.7 µM
TGI (EKVX NSCLC): > 100 µM
GI50 (HCT-15 colon): 53.3 µM
TGI (HCT-15 colon): > 100 µM
GI50 (HOP-62 NSCLC): 54.2 µM
TGI (HOP-62 NSCLC): > 100 µM
GI50 (HT29 colon): > 57.3 µM
TGI (HT29 colon): > 100 µM
GI50 (K-562 leukemia): 42.7 µM
TGI (K-562 leukemia): > 100 µM
GI50 (OVCAR-8 ovarian): 53.2 µM
TGI (OVCAR-8 ovarian): > 100 µM
GI50 (SF-268 CNS): 44.6 µM
TGI (SF-268 CNS): > 100 µM
GI50 (SK-OV-3 ovarian): 65.7 µM
TGI (SK-OV-3 ovarian): > 100 µM
GI50 (SNB-19 CNS): 51.1 µM
TGI (SNB-19 CNS): > 100 µM
GI50 (UO-31 renal): > 73.4 µM
TGI (UO-31 renal): > 100 µM
